Measured values as given in patent US12427134B2, “Methods of reducing the risk of cardiovascular events in a subject with atrial fibrillation and/or atrial flutter” (priority 2019, dated 2025).

System: hypertriglyceridemic patients with cardiovascular disease or at high risk for cardiovascular disease
Test: REDUCE-IT: total (first and subsequent/recurrent) ischemic events analyses (negative binomial, Andersen-Gill, Wei-Lin-Weissfeld, joint frailty)
Assay type: in vivo, human
Details: for Cardiovascular Death, HR (95% CI) / Non-fatal Cardiovascular Event, HR (95% CI): joint frailty model; for Key secondary composite endpoint, HR (95% CI) / Primary composite endpoint, HR (95% CI): modified WLW
Procedure: The primary outcome for the study was total recurrent events consisting of the composite of cardiovascular death, nonfatal myocardial infarction, nonfatal stroke, coronary revascularization, or hospitalization for unstable angina. Recurrent event analyses were also performed for the key secondary endpoint, a composite of cardiovascular death, non fatal myocardial infarction, or non-fatal stroke. For each of these composite endpoints, the effects of icosapent ethyl in the secondary and primary prevention strata were examined separately.
Demographic and baseline disease characteristics are presented using frequencies and percentages for categorical variables and medians with interquartile ranges for continuous variables. Between treatment group comparisons were derived using the chi-square test for categorical variables and Wilcoxon rank test for continuous variables. All clinical endpoint events used in the efficacy analyses were adjudicated by an independent Clinical Endpoint Committee (CEC) who were blinded to the treatment assignment. Since the primary efficacy endpoint was the time from randomization to the first occurrence of any component of the composite endpoint, and recurrence of such events within each patient is possible, a pre-specified analysis using a Cox proportional-hazard with the counting-process formulation of Andersen and Gill was performed to model the first and all recurrent cardiovascular events. Hazard ratios (HR) and corresponding 95% confidence intervals (CI) are reported from this model. In addition, as a marginal model and an extension of survival models based on the Cox proportional hazard model, the modified Wei-Lin-Weissfeld (WLW) method for analysis of recurrent events in the presence of deaths was carried out as a supportive analysis. In addition, as pre-specified, a recurrent event analysis using the Andersen-Gill and Wei-Lin-Weissfeld methods were carried out for the individual primary event components other than CV death. Though not pre-specified, additional recurrent event analyses were performed for the key secondary endpoint, which is a composite of CV death, non-fatal MI, or non-fatal stroke, and for the primary endpoint and the key secondary endpoint in the primary and secondary prevention strata to explore further the consistency of clinical benefit of icosapent ethyl. In subgroup analyses of the two cardiovascular risk strata (i.e., primary and secondary prevention), site-level discrepancies in cardiovascular risk group assignment occurring at entry and detected during the study (1.8%) were adjusted to conform with documented medical history data prior to randomization. All efficacy analyses were performed according to the intention-to-treat principle. All tests were based on a 2-sided nominal significance level of 5% with no adjustments for multiple comparisons.
The following study was a multi-center, placebo-controlled clinical trial the details of which are described above in Example 1, the REDUCE-IT design. […] The main outcomes were total primary composite endpoint events defined as cardiovascular death, nonfatal myocardial infarction, nonfatal stroke, coronary revascularization, or hospitalization for unstable angina and total key secondary composite endpoint events defined as cardiovascular death, nonfatal myocardial infarction, or nonfatal stroke. In the context of this study, total events refer to any first event as well as any subsequent event. Differences in total events were determined using other statistical models, including Andersen-Gill, Wei-Lin-Weisfeld (Li and Lagakos), both pre-specified, and a post hoc and joint-frailty analysis.
For the present prespecified analysis, the primary outcome was the total of first plus subsequent ischemic events consisting of the composite of cardiovascular death, nonfatal myocardial infarction, nonfatal stroke, coronary revascularization, or hospitalization for unstable angina. […]

[1] = Andersen-Gill (I), adjusted, full dataset
[2] = Andersen-Gill (I), adjusted, reduced dataset
[3] = Andersen-Gill (I), unadjusted, full dataset
[4] = Andersen-Gill (I), unadjusted, reduced dataset
[5] = Andersen-Gill (II), adjusted, full dataset
[6] = Andersen-Gill (II), adjusted, reduced dataset
[7] = Andersen-Gill (II), unadjusted, full dataset
[8] = Andersen-Gill (II), unadjusted, reduced dataset
[9] = as summarised in the Example 6 conclusion
[10] = including same-day recurrent events, ITT, denominator total number of events in category
[11] = key secondary endpoint, adjusted, reduced dataset
[12] = key secondary endpoint, unadjusted, reduced dataset
[13] = primary endpoint, adjusted, reduced dataset
[14] = primary endpoint, unadjusted, reduced dataset
[15] = first event, adjusted, full dataset
[16] = first event, adjusted, reduced dataset
[17] = first event, unadjusted, full dataset
[18] = first event, unadjusted, reduced dataset
[19] = second event, adjusted, full dataset
[20] = second event, adjusted, reduced dataset
[21] = second event, unadjusted, full dataset
[22] = second event, unadjusted, reduced dataset
[23] = third event, adjusted, full dataset
[24] = third event, adjusted, reduced dataset
[25] = third event, unadjusted, full dataset
[26] = third event, unadjusted, reduced dataset
[27] = negative binomial, adjusted, full dataset
[28] = negative binomial, adjusted, reduced dataset
[29] = negative binomial, unadjusted, full dataset
[30] = negative binomial, unadjusted, reduced dataset
[31] = per 100 patients treated for five years
[32] = per 1000 patients treated for five years
[33] = primary composite endpoint, after reduction, share of overall events in category
[34] = total events including same-day recurrent events, ITT, denominator total number of events in category

Compound: CC/C=C\C/C=C\C/C=C\C/C=C\C/C=C\CCCC(=O)OCC [AMR101, eicosapentaenoic acid ethyl ester]
- Total key secondary composite endpoint events, HR (95% CI) [1]: 0.71
- Total primary composite endpoint events, HR (95% CI) [1]: 0.68
- Total key secondary composite endpoint events, HR (95% CI) [2]: 0.72
- Total primary composite endpoint events, HR (95% CI) [2]: 0.69
- Total key secondary composite endpoint events, HR (95% CI) [3]: 0.71
- Total primary composite endpoint events, HR (95% CI) [3]: 0.68
- Total key secondary composite endpoint events, HR (95% CI) [4]: 0.72
- Total primary composite endpoint events, HR (95% CI) [4]: 0.69
- Total key secondary composite endpoint events, HR (95% CI) [5]: 0.71
- Total primary composite endpoint events, HR (95% CI) [5]: 0.68
- Total key secondary composite endpoint events, HR (95% CI) [6]: 0.72
- Total primary composite endpoint events, HR (95% CI) [6]: 0.69
- Total key secondary composite endpoint events, HR (95% CI) [7]: 0.71
- Total primary composite endpoint events, HR (95% CI) [7]: 0.68
- Total key secondary composite endpoint events, HR (95% CI) [8]: 0.72
- Total primary composite endpoint events, HR (95% CI) [8]: 0.69
- Total key secondary endpoints, number of events (Example 2, overall, 861 with placebo): 590
- Total key secondary endpoint events, rate ratio (Example 3): 0.72
- Total key secondary endpoint events, rate ratio [9]: 0.71
- Total primary endpoint events, rate ratio [9]: 0.69
- Key Secondary Endpoint Events: Others, % [10]: (52.9) %
- Key Secondary Endpoint Events: ≥1 event, % [10]: (43.1) %
- Key Secondary Endpoint Events: ≥2 events, % [10]: (37.9) %
- Key Secondary Endpoint Events: ≥3 events, % [10]: (35.1) %
- Key Secondary Endpoint Events: ≥4 events, % [10]: (42.9) %
- Primary Endpoint Events: Others, % [10]: (35.0) %
- Primary Endpoint Events: ≥1 event, % [10]: (43.9) %
- Primary Endpoint Events: ≥2 events, % [10]: (39.2) %
- Primary Endpoint Events: ≥3 events, % [10]: (35.3) %
- Primary Endpoint Events: ≥4 events, % [10]: (27.9) %
- Cardiovascular Death, HR (95% CI) [11]: 0.79
- Non-fatal Cardiovascular Event, HR (95% CI) [11]: 0.68
- Cardiovascular Death, HR (95% CI) [12]: 0.79
- Non-fatal Cardiovascular Event, HR (95% CI) [12]: 0.68
- Cardiovascular Death, HR (95% CI) [13]: 0.80
- Non-fatal Cardiovascular Event, HR (95% CI) [13]: 0.67
- Cardiovascular Death, HR (95% CI) [14]: 0.80
- Non-fatal Cardiovascular Event, HR (95% CI) [14]: 0.66
- Key secondary endpoint: fatal events, % (key secondary composite endpoint, after reduction, share of overall events in category): 45.0%
- Key secondary endpoint: total events before reduction, % (key secondary composite endpoint, before reduction, share of overall events in category): 42.0%
- Key secondary composite endpoint, HR (95% CI) [15]: 0.74
- Primary composite endpoint, HR (95% CI) [15]: 0.75
- Key secondary composite endpoint, HR (95% CI) [16]: 0.74
- Primary composite endpoint, HR (95% CI) [16]: 0.75
- Key secondary composite endpoint, HR (95% CI) [17]: 0.74
- Primary composite endpoint, HR (95% CI) [17]: 0.76
- Key secondary composite endpoint, HR (95% CI) [18]: 0.74
- Primary composite endpoint, HR (95% CI) [18]: 0.76
- Key secondary composite endpoint, HR (95% CI) [19]: 0.75
- Primary composite endpoint, HR (95% CI) [19]: 0.68
- Key secondary composite endpoint, HR (95% CI) [20]: 0.75
- Primary composite endpoint, HR (95% CI) [20]: 0.68
- Key secondary composite endpoint, HR (95% CI) [21]: 0.75
- Primary composite endpoint, HR (95% CI) [21]: 0.69
- Key secondary composite endpoint, HR (95% CI) [22]: 0.75
- Primary composite endpoint, HR (95% CI) [22]: 0.69
- Key secondary composite endpoint, HR (95% CI) [23]: 0.79
- Primary composite endpoint, HR (95% CI) [23]: 0.70
- Key secondary composite endpoint, HR (95% CI) [24]: 0.79
- Primary composite endpoint, HR (95% CI) [24]: 0.69
- Key secondary composite endpoint, HR (95% CI) [25]: 0.79
- Primary composite endpoint, HR (95% CI) [25]: 0.70
- Key secondary composite endpoint, HR (95% CI) [26]: 0.79
- Primary composite endpoint, HR (95% CI) [26]: 0.69
- Total primary endpoint events, rate ratio (negative binomial model, Example 3): 0.70
- Total key secondary composite endpoint events, HR (95% CI) [27]: 0.71
- Total primary composite endpoint events, RR (95% CI) [27]: 0.69
- Total key secondary composite endpoint events, RR (95% CI) [28]: 0.72
- Total primary composite endpoint events, RR (95% CI) [28]: 0.70
- Total key secondary composite endpoint events, RR (95% CI) [29]: 0.71
- Total primary composite endpoint events, RR (95% CI) [29]: 0.67
- Total key secondary composite endpoint events, RR (95% CI) [30]: 0.71
- Total primary composite endpoint events, RR (95% CI) [30]: 0.68
- Total key secondary endpoint events, HR (overall): 0.71
- Cardiovascular deaths that could be prevented [31]: 1
- Coronary revascularizations that could be prevented [31]: 8
- Episodes of unstable angina that could be prevented [31]: 2
- Myocardial infarctions that could be prevented [31]: 4
- Strokes that could be prevented [31]: 1
- Cardiovascular deaths that could be prevented [32]: 12
- Coronary revascularizations that could be prevented [32]: 76
- Episodes of hospitalization for unstable angina that could be prevented [32]: 16
- Myocardial infarctions that could be prevented [32]: 42
- Strokes that could be prevented [32]: 14
- Primary endpoint: fatal events, % [33]: (45.0) %
- Primary endpoint: total events after reduction, % [33]: (41.0) %
- Total key secondary endpoint events, HR (primary prevention stratum): 0.71
- Total key secondary endpoint events, HR (secondary prevention stratum): 0.70
- Key Secondary Endpoint Events, % [34]: (42.0) %
- Primary Endpoint Events, % [34]: (40.7) %
